The record followed here is US20240181007A1, “COMPOSITIONS AND METHODS FOR TREATING PULMONARY HYPERTENSION” (Acceleron Pharma Inc., priority 2021, published 2024).

This experiment concerns ZSF1-SU rats. Nature of the experiment: HFpEF induced PH rat model, ZSF1 rats challenged with semaxanib (Example 10). Type of experiment: in vivo. Particulars: relative to ZSF1-SU/PBS. As for the experimental part:
The effects of an ActRIIA-mFc fusion polypeptide (SEQ ID NO: 56) was examined in a rat model of left ventricular diastolic dysfunction (also referred to as HEpEF) group 2 (subgroup 2.2) pulmonary hypertension (PH). In this model, ZSF1-Lepr^faLepr^cp/Crl rats were challenged with semaxanib to induce HFpEF-PH(l).
Forty ZSF1 Lepr^faLepr^cp/Crl male […] (8 wks old) and five lean rats were subcutaneously administered with a single dose of semaxanib (100 mg/kg) at day 0, and five lean rats were included as normal control. Six weeks after semaxanib (SU5416) treatment, Thirty-six ZSF1 Lepr^faLepr^cp/Crl rats were randomized into four groups: i) nine rats were injected subcutaneously with vehicle control (phosphate buffered saline (PBS)), twice weekly for 8 weeks starting from day 42 after semaxanib treatment, “ZSF1-SU/PBS”; a ii) ten rats were injected subcutaneously with ActRIIA-mFc at a dose of 1 mg/kg twice weekly for 8 weeks starting from day 42 after semaxanib treatment, “ZSF1-SU/ActRIIA-mFc 1 mpk”: a iii) nine rats were injected subcutaneously with ActRIIA-mFc at a dose of 3 mg/kg twice weekly for 8 weeks starting from day 42 after semaxanib treatment, “ZSF1-SU/ActRIIA-mFc 3 mpk”; and a iv) eight rats were injected subcutaneously with ActRIIA-mFc at a dose of 10 mg/kg twice weekly for 8 weeks starting from day 42 after semaxanib treatment, “ZSF1-SU/ActRIIA-mFc 10 mpk”. At the end of the study, echocardiography and pressure-volume catheter were performed to measure left and right ventricular remodeling and functional changes before animals were euthanized for heart and lung collection. Hearts and lungs of each rat were weighed, fixed in 10% formalin, embedded in paraffin, and sectioned for Masson's trichrome stain to assess fibrosis. Serum and urine samples were collected at the end of the study.
Rats were fasted overnight to measure fasting blood glucose levels at week 14 (before treatments started), week 18 (4 weeks after treatments), and week 22, and oral glucose tolerance test was performed at week 22. Blood glucose levels were measured with a glucometer after bleeding tail vein with a 27G needle. To prepare oral glucose tolerance test, 40% glucose stock solution run through a filter to sterilize it. After fasting overnight, rat body weight was measured. Blood glucose level was detected. Then 40% glucose solution was administered via oral gavage according to body weight (2 g/kg). Blood glucose levels were measured at 30, 60, 90, 120 minutes.
Prior to euthanization, in vivo cardiac function was assessed by transthoracic echocardiography (Acuson P300, 18 MHz linear transducer; Siemens) in lightly anesthetized rats as described (2). From left ventricle short axis view, M-mode echocardiogram was acquired to measure interventricular septal thickness at end diastole (IVSd), left ventricular posterior wall thickness at end diastole (LVPWd), left ventricular end diastolic diameter (LVEDD), and left ventricular end systolic diameter (LVESD). Left ventricular mass (LVM) was assessed by the equation: 1.05 [(LVEDD+LVPTD+IVSd)^3-LVEDD^3]. Early diastolic filling peak velocity (E), early diastolic mitral annular velocity (E′), and isovolumetric relaxation time (IVRT) were measured from the medial or septal wall at the mitral valve level from tissue Doppler image. LV diastolic function was assessed by measuring the E/E′ ratio and IVRT. Pulmonary arterial acceleration time (PAAT), a parameter of right ventricular function, was also measured.
Fourteen weeks after semaxanib treatment, rats were anesthetized with ketamine (100 mg/kg) and xylazine (5 mg/kg) at the end of the experiment to evaluate cardiac and pulmonary hemodynamics. The respiration was supported by a small animal ventilator. Thoracotomy was made through 4-5 intercostal space, and the heart was exposed. A pressure-volume catheter (2.0-Fr, SPR-869, Millar Instruments, Houston, TX, USA) was be inserted into the left ventricle and right ventricle from the apex. […]

[1] abbreviates: 1 mpk, 3 mpk and 10 mpk, FIGS. 41-43.

Take “ActRIIA-mFc: ActRIIA-mFc fusion polypeptide (SEQ ID NO: 56); extracellular domain fused to murine IgG2a Fc domain with a linker”: under setting [1], the fasting blood glucose entry is given as “significantly reduced fasting blood glucose”, the “glucose level in urine” value was “decreased glucose level in urine” and the “glucose tolerance (oral glucose tolerance test)” value is reported as “improved glucose tolerance”. Also, the “E/E′ ratio” value (3 mpk and 10 mpk s.c. twice weekly for 8 weeks from day 42 after semaxanib, FIG. 29) was “reduced E/E′ ratio”. The IVRT result (3 mpk and 10 mpk s.c. twice weekly for 8 weeks from day 42 after semaxanib, FIG. 30) was “decreased IVRT”. In addition, under “3 mpk and 10 mpk s.c. twice weekly for 8 weeks from day 42 after semaxanib, FIG. 34”, the RVFWT result is reported as “significantly reduced elevated RVFWT”. Further, under “3 mpk and 10 mpk s.c. twice weekly for 8 weeks from day 42 after semaxanib, FIG. 35”, the PAAT result is on record as “reduced PAAT”. In addition, the RVSP result (3 mpk and 10 mpk s.c. twice weekly for 8 weeks from day 42 after semaxanib, FIG. 36) is “reduced elevated RVSP”. Also, for the setting “3 mpk and 10 mpk s.c. twice weekly for 8 weeks from day 42 after semaxanib, FIGS. 31-33”, the “left heart remodeling (HW/TL, IVSd, LVM)” value was “significantly reduced left heart remodeling”. For the same substance, for the setting “s.c. twice weekly for 8 weeks, dose not given, FIG. 37”, the “fibrosis in LV” value was “significantly reduced the increased fibrosis”. The “fibrosis in RV” value (s.c. twice weekly for 8 weeks, dose not given, FIG. 38) was “significantly reduced the increased fibrosis”. Besides, the fibrosis in lung entry (s.c. twice weekly for 8 weeks, dose not given, FIG. 39) is given as “significantly reduced the increased fibrosis”.
